One assay has as its system NUP-MDSC. The assay is described as follows: Global proteome expression profiling of compound-treated NUP-MDSC (TMT LC-MS/MS). The class given is cell-based, mouse. The following applies: 72 h; for log2 FC Moce_300/DMSO: 300 nM. The protocol:
After treatments, medium was removed, cells were washed twice with PBS, and the cell pellets were further subjected to proteomic sample preparation.
The cell pellet was reconstituted in 2% SDS in 50 mM Tris–HCl pH 7.5 and lysed by heating to 95 °C for 10 min. One microliter of 100% TFA was added to each sample to hydrolyze DNA, and the pH was subsequently adjusted to 8.5 with 3 M Tris solution. Disulfide bonds were reduced with 10 mM DTT for 45 min at 37 °C, followed by alkylation of cysteines with 55 mM CAA for 30 min at room temperature. Prior to tryptic digestion, the detergent was removed from lysates by SP3 cleanup on an Agilent BRAVO system (Agilent Technologies), following the protocol first described by Hughes et al. ([34]). Briefly, lysate containing 200 μg of protein was mixed with SP3 beads, and proteins were precipitated onto a 50:50 mixture of Sera-Mag Speed Bead types A and B (Thermo Fisher Scientific) in 58% acetonitrile. Beads were washed three times with 80% ethanol in water and once with acetonitrile. Tryptic digest was performed in 100 μl of digestion buffer (2 mM CaCl2 in 25 mM Hepes, pH 8.5) with a 1:50 enzyme-to-protein ratio. Bead-precipitated proteins were digested at 37 °C overnight. On the next day, the supernatant of each sample was transferred to a new well and vacuum dried.
Dried peptides were reconstituted in water and labeled with the respective TMT10plex-labeling reagent as described previously ([35]) with a protein to tandem mass tag (TMT) reagent ratio of 1:2. Labeled samples were pooled, vacuum dried, and reconstituted in 0.1% formic acid (FA) prior to desalting on SepPAC50 columns (waters corp.). Peptides were fractionated using a Dionex Ultra 3000 HPLC system with a Waters XBridge BEH130 C18 3.5 um 2.1 × 250 mm column as described previously ([36]). Ninety-six fractions were collected and pooled to 48. For the full proteome analysis, one fifth of each fraction was transferred to a new 96-well plate and both plates were vacuum dried. For the phosphopeptide analysis, dried peptides were reconstituted in 55 μl 0.1% TFA in 30% ACN, pooled from 48 to 12 fractions, and mixed with 70 μl priming buffer (0.1% TFA, 100% ACN). Phosphopeptides were enriched from each of the 12 fractions using Fe(III)-IMAC-NTA cartridges on the AssayMAP BRAVO (Agilent Technologies) platform as described previously ([36]). Phosphopeptides were eluted with 60 μl 1% ammonia, vacuum dried, and stored at −20 °C prior to LC-MS/MS analysis.
The Fusion Lumos was operated in data-dependent acquisition and positive ionization mode. Samples were measured employing a MS3 method. In brief, full scan MS1 spectra were recorded in the orbitrap (OT) from 360 to 1560 m/z at 60,000 resolution using an automatic gain control (AGC) target value of 4e5 charges and a maximum injection time (maxIT) of 50 ms. Iontrap-MS2 spectra for peptide identification were acquired using higher energy collision dissociation (HCD) fragmentation with 32% normalized collision energy (NCE), an isolation window of 0.6 m/z, and an AGC target value of 1.2e4 charges. To obtain quantitative information on TMT reporter ions, each peptide precursor was fragmented again as for MS2 analysis followed by synchronous selection of the up to eight most intense peptide fragments in the iontrap ([37]) and further fragmentation via HCD using a NCE of 55%. The MS3 scan was recorded in the OT at 50,000 resolution (scan range 100–1000 m/z, isolation window of 1.2 m/z, AGC of 1e5 charges, maxIT of 86 ms). The cycle time was 1.2 s, and the dynamic exclusion lasted for 50 s.
Peptide, protein, and phosphorylation site identification and quantification were performed with MaxQuant software (v. 1.6.3.3, https://www.maxquant.org/) with standard settings for reporter ion MS3 unless described otherwise ([39]). Isotope impurities of the TMT lot were specified to allow MaxQuant the automated correction of TMT intensities. […]

The target of assay [1] is T1, NUP-MDSC cell lysate (Mus musculus, UniProt G5E8Z3).
T1 construct: endogenous in cells; host or cells: mouse NUP-MDSC (lysate)
T1 sequence (G5E8Z3 1-280): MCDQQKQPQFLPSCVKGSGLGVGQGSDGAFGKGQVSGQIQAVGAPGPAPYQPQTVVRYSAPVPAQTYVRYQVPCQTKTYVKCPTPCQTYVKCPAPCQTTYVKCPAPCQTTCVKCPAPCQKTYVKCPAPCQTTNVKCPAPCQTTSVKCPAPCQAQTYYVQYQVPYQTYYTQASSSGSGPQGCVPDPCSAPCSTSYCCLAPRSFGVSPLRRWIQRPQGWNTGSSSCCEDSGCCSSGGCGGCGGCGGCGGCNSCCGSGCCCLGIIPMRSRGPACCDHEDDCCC
The assay is described as follows: Chemoproteomic competition pulldown assay (iCor/iEnt affinity matrix), proteome-wide. It counts as binding. The following applies: protein 2310050C09Rik (G5E8Z3). The text has this: (§1) Targets of the inhibitors were annotated manually.

For assay [2], the target named is T2, NUP-MDSC cell lysate (Mus musculus, UniProt Q8WUR0).
T2 construct: endogenous in cells; host or cells: mouse NUP-MDSC (lysate)
T2 sequence (Q8WUR0 1-141): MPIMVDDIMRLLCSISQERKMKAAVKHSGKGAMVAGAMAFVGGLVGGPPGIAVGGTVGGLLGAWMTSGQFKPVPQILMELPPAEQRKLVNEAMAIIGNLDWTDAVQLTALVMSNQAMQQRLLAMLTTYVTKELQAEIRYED
The assay is described as above. The class given is binding. The following applies: protein 1600014C10Rik (Protein C19orf12 homolog).
Excerpt: as §1

The next assay has as its target T3, Arginase (Mus musculus, UniProt Q61176).
T3 construct: endogenous in cells; host or cells: mouse NUP cells / NUP-MDSC (lysate)
T3 sequence (Q61176 1-323): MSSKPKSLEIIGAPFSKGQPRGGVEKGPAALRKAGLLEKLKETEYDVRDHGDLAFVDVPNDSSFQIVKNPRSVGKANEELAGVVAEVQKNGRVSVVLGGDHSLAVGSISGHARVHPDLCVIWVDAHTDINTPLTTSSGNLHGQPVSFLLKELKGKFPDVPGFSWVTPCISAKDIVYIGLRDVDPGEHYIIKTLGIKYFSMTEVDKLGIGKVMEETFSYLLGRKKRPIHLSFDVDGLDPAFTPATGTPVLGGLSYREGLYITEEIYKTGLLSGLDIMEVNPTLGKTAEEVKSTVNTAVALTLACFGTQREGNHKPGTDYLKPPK
The assay is described as follows: Arginase activity assay (Arginase Activity Assay Kit) in cell lysates. It counts as biochemical. The following applies: NUP-MDSC lysates; titrated amounts of inhibitor. The protocol:
Arginase catalyzes the conversion of arginine to urea and ornithine. The urea produced specifically reacts with the assay substrate to generate a colored product, proportional to the arginase activity. Cells were washed with PBS and lysed for 10 min in 10 mM Tris–HCl, pH7.4 containing protease inhibitors and 0.4% (w/v) Triton X-100. Lysates were centrifuged at 13,000g for 10 min, and supernatant was used for analysis. Arginase activity was analyzed using the Arginase Activity Assay Kit (Sigma, MAK112) according to manufacturer’s protocol. Lysates were untreated or treated with titrated amounts of the arginase inhibitor (3R,4S)-3-amino-1-[(2S)-2-aminopropanoyl]-4-(3-boronopropyl)pyrrolidine-3-carboxylic acid. Absorbance (430 nm) was analyzed in an Infinite M1000 Pro (Tecan) plate reader after 120 min of incubation. Arginase activity was determined as follows: arginase activity = absorbance-blank/(urea standard-H2O Control)∗(1 mM∗reaction volume ∗10³/(incubation time in min∗sample volume (μL))). One unit of arginase is the amount of enzyme that will convert 1.0 μmole of L-arginine to ornithine and urea per minute at pH 9.5 and 37 °C.

The test system of the next assay is A594 cells. The assay is described as follows: CellROX-based detection of ROS levels. The following applies: 48 h treatment (compound 2 7.8 μM, N-acetyl-cysteine 300 μM), then 200 μM tert-butyl hydroperoxide 2 h; compared to compound 3 10 μM. The class given is cell-based. The protocol: A594 cells were maintained in Fluorobrite DMEM (Thermo Fisher Scientific) supplemented with GlutaMAX (Thermo Fisher Scientific) and 10% fetal bovine serum (PAN Biotech). Cells were seeded onto a 24-well microplate (Ibidi) and treated with DMSO, 7.8 μM compound 2 (3x EC50), 10 μM compound 3, or 300 μM N-acetyl-cysteine for 48 h. After the treatment, cells were incubated with 200 μM tert-butyl hydroperoxide (Sigma) for 2 h to stimulate ROS production. Then, cells were stained with CellROX deep red (Thermo Fisher Scientific) following the manufacturer’s guidelines. CellROX deep red signal was measured on a Leica DMI 6000 B epifluorescent microscope with a Cy5 filter set. Mean signal intensity per cell was determined from >100 cells per condition from three independent treatments.
For the CellROX assay, three independent treatments were conducted. From each, the mean signal intensity per cell was determined for >100 cells per condition. The statistical significance was calculated by one-way ANOVA followed by a post hoc Tukey’s multiple comparisons test using GraphPad Prism (v.8.3.0).

For the compound `Nc1ccccc1NC(=O)c1ccc(CNc2nccc(-c3cccnc3)n2)cc1` [mocetinostat], the “protein expression of Il1a, Il1b, and Il1rn” value with NUP-MDSC (30 and 300 nM) is given as “dose-dependently upregulated”. Also, in the assay on NUP-MDSC (30 and 300 nM, dose-dependent manner), the “protein level of Cxcr3, Ccl9, and Ccr5” value is listed as “increased”. Moreover, the “log2 FC Moce_300/DMSO” value in the assay with NUP-MDSC (protein Cask) was -0.508; in the assay with NUP-MDSC (protein Hsf1), -0.2561; with NUP-MDSC (protein Inpp5j), 0.2433; with NUP-MDSC (protein Magohb;Magoh), -0.03048. The figures for the “Intensity 10nM” value on NUP-MDSC cell lysate [1] (Mocetinostat 10nM) and at NUP-MDSC cell lysate [2] (Mocetinostat 10nM) were 25441000 and 53804000, respectively. The entries for the “LFQ intensity 10nM” value at NUP-MDSC cell lysate [1] (Mocetinostat 10nM) and on NUP-MDSC cell lysate [2] (Mocetinostat 10nM) were 9384100 and 30216000, respectively. Moreover, the “Intensity 30nM” value on NUP-MDSC cell lysate [1] (Mocetinostat 30nM) is recorded as 13403000; at NUP-MDSC cell lysate [2] (Mocetinostat 30nM) it was 64537000. Further, the “LFQ intensity 30nM” value at NUP-MDSC cell lysate [1] (Mocetinostat 30nM) stood at 6282200; on NUP-MDSC cell lysate [2] (Mocetinostat 30nM) it was 37744000. Further, the “Intensity 100nM” value on NUP-MDSC cell lysate [1] (Mocetinostat 100nM) amounted to 19942000; on NUP-MDSC cell lysate [2] (Mocetinostat 100nM), 59266000. Further, the “LFQ intensity 100nM” value at NUP-MDSC cell lysate [1] (Mocetinostat 100nM) came out at 8726600; on NUP-MDSC cell lysate [2] (Mocetinostat 100nM), 38158000. Besides, the “Intensity 300nM” value at NUP-MDSC cell lysate [1] (Mocetinostat 300nM) turned out to be 13729000; on NUP-MDSC cell lysate [2] (Mocetinostat 300nM), 53823000. The “LFQ intensity 300nM” value at NUP-MDSC cell lysate [1] (Mocetinostat 300nM) was determined as 7913100; at NUP-MDSC cell lysate [2] (Mocetinostat 300nM), 43828000. In addition, the “Intensity 1000nM” value on NUP-MDSC cell lysate [1] (Mocetinostat 1000nM) is recorded as 4275900; at NUP-MDSC cell lysate [2] (Mocetinostat 1000nM), 51502000. For the same compound, the “LFQ intensity 1000nM” value on NUP-MDSC cell lysate [1] (Mocetinostat 1000nM) is reported as 0; on NUP-MDSC cell lysate [2] (Mocetinostat 1000nM) it was 40150000. In addition, the “Intensity 3000nM” value is 53551000 at NUP-MDSC cell lysate [1] (Mocetinostat 3000nM) and 76226000 at NUP-MDSC cell lysate [2] (Mocetinostat 3000nM). The “LFQ intensity 3000nM” value at NUP-MDSC cell lysate [1] (Mocetinostat 3000nM) was determined as 32269000; on NUP-MDSC cell lysate [2] (Mocetinostat 3000nM), 38853000. Further, the “Intensity 30000nM” value at NUP-MDSC cell lysate [1] (Mocetinostat 30000nM) is on record as 25441000; at NUP-MDSC cell lysate [2] (Mocetinostat 30000nM), 39641000. For the same compound, the “LFQ intensity 30000nM” value on NUP-MDSC cell lysate [1] (Mocetinostat 30000nM) is listed as 13756000; on NUP-MDSC cell lysate [2] (Mocetinostat 30000nM) it was 39494000.

In the case of `C[C@H](N)C(=O)N1C[C@H](CCCB(O)O)[C@](N)(C(=O)O)C1` [arginase inhibitor, (3R,4S)-3-amino-1-[(2S)-2-aminopropanoyl]-4-(3-boronopropyl)pyrrolidine-3-carboxylic acid], at Arginase, the arginase activity entry is “dose dependently decreased”.

`CC(=O)N[C@@H](CS)C(=O)O` [N-acetyl-cysteine]: the “CellROX Deep Red fluorescence (amount of ROS in a cell)” value with A594 cells is “decreased significantly”.
